Results on 2 molecules are retold here after BindingDB's records for doi:10.1021/jm0603926 (Taigen Biotechnology, 2006).

For orientation: Ki means a dissociation constant, usually derived from enzyme kinetics or from competition with a known ligand. A lower Ki goes with a stronger hold on the target.

In this assay the target is Replicase polyprotein 1ab (Severe acute respiratory syndrome coronavirus, UniProt P0C6X7). The experiment in a line: 3CL Protease Enzyme Assays. The following applies: pH 7.5; 25 °C. The method, then: The effects of compound on enzyme activity were measured by using peptide cleavage assay. Cleavage products were resolved and analyzed with a reverse-phase HPLC. Quantification of peak areas was used to determine the extent of substrate conversion. Ki was calculated using the equation of Cheng and Prusoff.

As to `C[C@H](OC(C)(C)C)[C@H](NC(=O)OCc1ccccc1)C(=O)N[C@@H](CC1CCCCC1)C(=O)N[C@H](C=O)C[C@@H]1CCNC1=O` [benzyl N-[(1S,2S)-2-(tert-butoxy)-1-{[(1S)-2-cyclohexyl-1-{[(2S)-1-oxo-3-[(3S)-2-oxopyrrolidin-3-yl]propan-2-yl]carbamoyl}ethyl]carbamoyl}propyl]carbamate], the affinity, expressed as Ki, was 53 nM.

The molecule `CCOC(=O)/C=C/[C@H](C[C@@H]1CCNC1=O)NC(=O)[C@H](Cc1ccc(F)cc1)NC(=O)[C@@H](NC(=O)c1cc(C)on1)C(C)C` [AG7088 analogue 2a] had a Ki greater than 10000 nM.
